Measurements taken from patent publication EP3345917A1, “ANTIPROTOZOAL COMPOUNDS” (Bacoba AG, priority 2017, dated 2018).
Non-standard residues stand in square brackets, D forms with d. Residues, ends and D or L forms follow the SMILES beside them. *: point of attachment. Adamantane1carbonyl = O=C(C12CC3CC(CC(C3)C1)C2)*; Benzoyl(4-CF3) = O=C(c1ccc(C(F)(F)F)cc1)*; NH((S)CH(Me)CH2NMe2) = C[C@@H](CN(C)C)N*; Benzoyl(4-OMe) = COc1ccc(C(=O)*)cc1; Gly(octyl) = CCCCCCCC[C@H](N)C(=O)O; Oxazole4CO(2-Me) = Cc1nc(C(=O)*)co1; Thiophene2carbonyl = O=C(c1cccs1)*; hCha = N[C@@H](CCC1CCCCC1)C(=O)O; X17 = C[C@@H](CN1CCOCC1)N*; X21 = O=C(c1ccc2ocnc2c1)*; X4 = O=C(C1CCc2ccccc2C1)*; Aib = CC(C)(N)C(=O)O; βAla = NCCC(=O)O

How the values were obtained:
Type in all cases: cell-based
Plasmodium falciparum = assay: 3H-hypoxanthine incorporation assay against Plasmodium falciparum; conditions: In vitro inhibition, read-out: P.falc NF5
Method: (§1) Tests were done in triplicate.
IC50 values were calculated by linear interpolation.

[1] = test system: Trypanosoma cruzi trypomastigote forms (Tulahuen strain); assay: Intracellular Trypanosoma cruzi assay in L6-cells, beta-galactosidase/CPRG readout; conditions: In vitro inhibition, read-out: T.cruzi.
How it was run: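 Readout was β-galactosidase cleavage of CPRG, read photometrically at 540 nm after 2–6 h colour development, giving IC50 values. Parasites: LacZ-expressing Tulahuen C2C4 strain grown in rat L6 myoblasts; run in triplicate.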

[2] = test system: Trypanosoma brucei rhodesiense (STIB 900 strain); assay: Alamar Blue assay against Trypanosoma brucei rhodesiense grown in axenic medium; conditions: In vitro inhibition, read-out: T.b.rhod.
How it was run: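 Alamar Blue-based IC50 determination, in triplicate, on axenically grown STIB 900 trypanosomes. Melarsoprol included as reference.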

[3] = test system: Axenically grown Leishmania donovani amastigotes (strain MHOM/ET/67/L82); assay: Axenic Leishmania donovani amastigote resazurin assay; conditions: In vitro inhibition, read-out: L.don. ax
How it was run: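 IC50 values derive from resazurin fluorescence (ex 536 nm, em 588 nm), expressed relative to the negative control, after 2-4 hours of plate development. Axenic amastigotes of strain MHOM/ET/67/L82 were used; each test run in triplicate.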

[4] = test system: intracellular Leishmania donovani (L.don. InMac); assay: Intracellular Leishmania donovani assay (L.don. InMac); conditions: In vitro inhibition
Description: as §1

Work on Cc1nc(C(=O)N2CCC[C@H]2C(=O)N[C@@H](CCC2CCCCC2)C(=O)N[C@@H](CC(C)C)C(=O)NC(C)(C)C(=O)N[C@@H](CC(C)C)C(=O)N[C@@H](CC(C)C)C(=O)NC(C)(C)C(=O)NC(C)(C)C(=O)NCCC(=O)N[C@@H](C)CN2CCOCC2)co1 [Compound 6026] ({Oxazole4CO(2-Me)}-P[hCha]L[Aib]LL[Aib][Aib][βAla]-X17) yielded an IC50 (Plasmodium falciparum) of 0.038 µM, an IC50 [1] of 0.422 µM and an IC50 [2] of 41.4 µM. It also gave an IC50 [3] of 44.7 µM and an IC50 [4] of 0.0507 µM.
Molecule CCCCCCCC[C@H](NC(=O)[C@@H]1CCCN1C(=O)C12CC3CC(CC(C3)C1)C2)C(=O)N[C@@H](CC(C)C)C(=O)NC(C)(C)C(=O)N[C@@H](CC(C)C)C(=O)N[C@@H](CC(C)C)C(=O)NC(C)(C)C(=O)NC(C)(C)C(=O)NCCC(=O)N[C@@H](C)CN(C)C [Compound 5770, (2S)-2-{[(2S)-1-(adamantane-1-carbonyl)pyrrolidin-2-yl]formamido}-N-[(1S)-1-[(1-{[(1S)-1-{[(1S)-1-{[1-({1-[(2-{[(2S)-1-(dimethylamino)propan-2-yl]carbamoyl}ethyl)carbamoyl]-1-methylethyl}carbamoyl)-1-methylethyl]carbamoyl}-3-methylbutyl]carbamoyl}-3-methylbutyl]carbamoyl}-1-methylethyl)carbamoyl]-3-methylbutyl]decanamide] (Adamantane1carbonyl-P[Gly(octyl)]L[Aib]LL[Aib][Aib][βAla]-{NH((S)CH(Me)CH2NMe2)}) has an IC50 (Plasmodium falciparum) of 0.0033 µM, an IC50 [1] of 0.101 µM and an IC50 [2] of 0.0006 µM. It also gave an IC50 [3] of 0.001 µM and an IC50 [4] of 0.338 µM.
CCCCCCCC[C@H](NC(=O)[C@@H]1CCCN1C(=O)c1coc(C)n1)C(=O)N[C@@H](CC(C)C)C(=O)NC(C)(C)C(=O)N[C@@H](CC(C)C)C(=O)N[C@@H](CC(C)C)C(=O)NC(C)(C)C(=O)NC(C)(C)C(=O)NCCC(=O)N[C@@H](C)CN(C)C [Compound 5905, (2S)-N-[(1S)-1-[(1-{[(1S)-1-{[(1S)-1-{[1-({1-[(2-{[(2S)-1-(dimethylamino)propan-2-yl]carbamoyl}ethyl)carbamoyl]-1-methylethyl}carbamoyl)-1-methylethyl]carbamoyl}-3-methylbutyl]carbamoyl}-3-methylbutyl]carbamoyl}-1-methylethyl)carbamoyl]-3-methylbutyl]-2-{[(2S)-1-(2-methyl-1,3-oxazole-4-carbonyl)pyrrolidin-2-yl]formamido}decanamide] ({Oxazole4CO(2-Me)}-P[Gly(octyl)]L[Aib]LL[Aib][Aib][βAla]-{NH((S)CH(Me)CH2NMe2)}) showed an IC50 (Plasmodium falciparum) of 26.4 µM, an IC50 [1] of 42.5 µM and an IC50 [2] of 0.0002 µM. The IC50 [3] was 32 µM and the IC50 [4] was 42.4 µM.
Molecule CCCCCCCC[C@H](NC(=O)[C@@H]1CCCN1C(=O)C1CCc2ccccc2C1)C(=O)N[C@@H](CC(C)C)C(=O)NC(C)(C)C(=O)N[C@@H](CC(C)C)C(=O)N[C@@H](CC(C)C)C(=O)NC(C)(C)C(=O)NC(C)(C)C(=O)NCCC(=O)N[C@@H](C)CN(C)C (stereo partly drawn) [Compound 5910, (2S)-N-[(1S)-1-[(1-{[(1S)-1-{[(1S)-1-{[1-({1-[(2-{[(2S)-1-(dimethylamino)propan-2-yl]carbamoyl}ethyl)carbamoyl]-1-methylethyl}carbamoyl)-1-methylethyl]carbamoyl}-3-methylbutyl]carbamoyl}-3-methylbutyl]carbamoyl}-1-methylethyl)carbamoyl]-3-methylbutyl]-2-{[(2S)-1-(1,2,3,4-tetrahydronaphthalene-2-carbonyl)pyrrolidin-2-yl]formamido}decanamide] (X4-P[Gly(octyl)]L[Aib]LL[Aib][Aib][βAla]-{NH((S)CH(Me)CH2NMe2)}) has an IC50 (Plasmodium falciparum) of 42.6 µM, an IC50 [1] of 0.0411 µM and an IC50 [2] of 24.8 µM. For the same molecule, the IC50 [3] was 42.6 µM and the IC50 [4] was 42.6 µM.
With CCCCCCCC[C@H](NC(=O)[C@@H]1CCCN1C(=O)c1ccc(OC)cc1)C(=O)N[C@@H](CC(C)C)C(=O)NC(C)(C)C(=O)N[C@@H](CC(C)C)C(=O)N[C@@H](CC(C)C)C(=O)NC(C)(C)C(=O)NC(C)(C)C(=O)NCCC(=O)N[C@@H](C)CN(C)C [Compound 5912, (2S)-N-[(1S)-1-[(1-{[(1S)-1-{[(1S)-1-{[1-({1-[(2-{[(2S)-1-(dimethylamino)propan-2-yl]carbamoyl}ethyl)carbamoyl]-1-methylethyl}carbamoyl)-1-methylethyl]carbamoyl}-3-methylbutyl]carbamoyl}-3-methylbutyl]carbamoyl}-1-methylethyl)carbamoyl]-3-methylbutyl]-2-{[(2S)-1-(4-methoxybenzoyl)pyrrolidin-2-yl]formamido}decanamide] ({Benzoyl(4-OMe)}-P[Gly(octyl)]L[Aib]LL[Aib][Aib][βAla]-{NH((S)CH(Me)CH2NMe2)}) the IC50 (Plasmodium falciparum) was 20.9 µM, the IC50 [1] was 17.8 µM and the IC50 [2] was 0.0003 µM. For the same molecule, the IC50 [3] was 41.4 µM and the IC50 [4] was 42.6 µM.
For CCCCCCCC[C@H](NC(=O)[C@@H]1CCCN1C(=O)c1ccc(C(F)(F)F)cc1)C(=O)N[C@@H](CC(C)C)C(=O)NC(C)(C)C(=O)N[C@@H](CC(C)C)C(=O)N[C@@H](CC(C)C)C(=O)NC(C)(C)C(=O)NC(C)(C)C(=O)NCCC(=O)N[C@@H](C)CN(C)C [Compound 5936, (2S)-N-[(1S)-1-[(1-{[(1S)-1-{[(1S)-1-{[1-({1-[(2-{[(2S)-1-(dimethylamino)propan-2-yl]carbamoyl}ethyl)carbamoyl]-1-methylethyl}carbamoyl)-1-methylethyl]carbamoyl}-3-methylbutyl]carbamoyl}-3-methylbutyl]carbamoyl}-1-methylethyl)carbamoyl]-3-methylbutyl]-2-{[(2S)-1-[4-(trifluoromethyl)benzoyl]pyrrolidin-2-yl]formamido}decanamide] ({Benzoyl(4-CF3)}-P[Gly(octyl)]L[Aib]LL[Aib][Aib][βAla]-{NH((S)CH(Me)CH2NMe2)}), the IC50 (Plasmodium falciparum) was 31.3 µM, the IC50 [1] was 0.0526 µM and the IC50 [2] was 0.0007 µM. The IC50 [3] was 11.7 µM and the IC50 [4] was less than 0.0332 µM.
CCCCCCCC[C@H](NC(=O)[C@@H]1CCCN1C(=O)c1cccs1)C(=O)N[C@@H](CC(C)C)C(=O)NC(C)(C)C(=O)N[C@@H](CC(C)C)C(=O)N[C@@H](CC(C)C)C(=O)NC(C)(C)C(=O)NC(C)(C)C(=O)NCCC(=O)N[C@@H](C)CN(C)C [Compound 5904, (2S)-N-[(1S)-1-[(1-{[(1S)-1-{[(1S)-1-{[1-({1-[(2-{[(2S)-1-(dimethylamino)propan-2-yl]carbamoyl}ethyl)carbamoyl]-1-methylethyl}carbamoyl)-1-methylethyl]carbamoyl}-3-methylbutyl]carbamoyl}-3-methylbutyl]carbamoyl}-1-methylethyl)carbamoyl]-3-methylbutyl]-2-{[(2S)-1-(thiophene-2-carbonyl)pyrrolidin-2-yl]formamido}decanamide] (Thiophene2carbonyl-P[Gly(octyl)]L[Aib]LL[Aib][Aib][βAla]-{NH((S)CH(Me)CH2NMe2)}) was tested, and the IC50 (Plasmodium falciparum) was 32.1 µM, the IC50 [1] was 36.3 µM and the IC50 [2] was 0.0002 µM. For the same molecule, the IC50 [3] was 42.5 µM and the IC50 [4] was 42.5 µM.
With CCCCCCCC[C@H](NC(=O)[C@@H]1CCCN1C(=O)c1ccc2ocnc2c1)C(=O)N[C@@H](CC(C)C)C(=O)NC(C)(C)C(=O)N[C@@H](CC(C)C)C(=O)N[C@@H](CC(C)C)C(=O)NC(C)(C)C(=O)NC(C)(C)C(=O)NCCC(=O)N[C@@H](C)CN(C)C [Compound 5937] (X21-P[Gly(octyl)]L[Aib]LL[Aib][Aib][βAla]-{NH((S)CH(Me)CH2NMe2)}) the IC50 (Plasmodium falciparum) was 27.6 µM, the IC50 [1] was 0.0454 µM and the IC50 [2] was 43.5 µM. It also gave an IC50 [3] of 0.0212 µM and an IC50 [4] of 0.0585 µM.
